Measured values published in patent US20110135603A1, “INHIBITORS OF PHOSPHATIDYLINOSITOL 3-KINASE” (VERTEX PHARMACEUTICALS INCORPORATED, priority 2008, published 2011).
Read-outs that look alike come from different tables or passages of the source.

Key:
PI3Kγ = PI3Kγ (Homo sapiens, UniProt P48736); test: PI3K Inhibition Assay (33P-ATP, PI(4,5)P2 substrate), PI3Kγ isoform; type: biochemical; conditions: 2 nM final enzyme, 3 μM ATP, 30 μM PI(4,5)P2; competitive tight binding Ki fit
Description: (§1) Using a Biomek FX from Beckman Coulter, 1.5 μL of each of ten 2.5-fold serial dilutions of a compound of the invention in 100% DMSO was added to an individual well (hereafter, “test well”) in a 96 well polystyrene plate [Corning, Costar Item No. 3697]. One test well also contained 1.5 μL of DMSO with no compound. […] Using a Titertek Multidrop, 50 μL of Reaction Mix [100 mM HEPES pH 7.5, 50 mM NaCl, 10 mM DTT, 0.2 mg/mL BSA, 60 μM phosphatidylinositol(4,5)bisphosphate diCl6 (PI(4,5)P2; Avanti Polar Lipids, Cat. No. 840046P) and PI3K isoform of interest (see Table 3 for isoform concentrations)] was added to each well. To initiate the reaction, 50 μL of ATP Mix [20 mM MgCl2, 6 μM ATP (100 μCi/μmole ^33P-ATP)] was added each well, followed by incubating the wells for 30 min. at 25° C. Final concentrations in each well were 50 mM HEPES 7.5, 10 mM MgCl2, 25 mM NaCl, 5 mM DTT, 0.1 mg/mL BSA, 30 μM PI(4,5)P2, 3 μM ATP, and the PI3K isoform of interest (see Table 3). Final compound concentrations in each well ranged from 10 μM to 1 nM.
(§2) After incubation, the reactions in each well were quenched by addition of 50 μL of stop solution [30% TCA/Water, 10 mM ATP]. Each quenched reaction mixture was then transferred to a 96 well glass fiber filter plate [Corning, Costar Item No. 3511]. The plate was vacuum-filtered and washed three times with 150 μL of 5% TCA/water in a modified Bio-Tek Instruments ELX-405 Auto Plate Washer. 50 μL of scintillation fluid was added to each well and the plate read on a Perkin-Elmer TopCount™ NXT liquid scintillation counter to obtain ^33P-counts representing inhibition values.
(§3) The value for the background well was subtracted from the value obtained for each test well and the data were fit to the competitive tight binding Ki equation described by Morrison and Stone, Comments Mol. Cell. Biophys. 2: 347-368, 1985.

[1] = Evaluation of Brain/Plasma Concentrations; type: in vivo; conditions: Sprague-Dawley rats; for concentration at 2 h: 10 mg/kg oral intragastric in 0.5% MC, two hours after administration; for Kp at 2 h: 10 mg/kg oral, two hours, average brain/plasma ratio based on data obtained for each animal
Description: Selected compounds of the invention were evaluated for their ability to cross the blood-brain barrier. Accordingly, a compound of the invention was administered to Sprague-Dawley rats [10 mg/kg as a 1 mg/mL 0.5% MC solution] via oral intragastric delivery. Two hours after compound administration, the rats were anaesthetized by intramuscular administration of a 2 mL/kg Ketamine/Rompun/Acepromazine cocktail and placed onto necropsy table. The abdominal cavity was then opened with a V-cut and 300 microliters of blood was drawn directly from left ventricle for plasma concentration analysis. The blood sample was stored on ice in a 1.5 mL Eppendorf tube (containing K2EDTA) and subsequently centrifuged for 2 minutes at 2000 rpm. After centrifugation, 110 microliters of plasma was transferred to a fresh tube and stored at −70° C. until analysis. The rat was perfused with cold saline (containing 50 IU of heparin) at 20 mL/min from an infusion pump through the left ventricle of the heart. Immediately after starting the perfusion, a small cut in the right atria was made so that heparinized saline would flow through the body. The perfusion was continued until the liver appeared pale in color (about 60 mL of cold saline). The brain was removed and placed on ice, blotted dry, weighed, placed in a tube, frozen with liquid nitrogen, and stored at −70° C. until further analysis was performed.
In order to determine compound concentration in the plasma, the blood sample was prepared by protein precipitation with addition of acetonitrile at a ratio of 1:4. After vortexing and centrifugation, the supernatant was analyzed by high performance liquid chromatography-tandem mass spectrometry in positive Atmospheric Pressure Chemical Ionization (APCI) ionization mode. The analysis was done using reverse-phase high performance liquid chromatography with a 5.0 μm Xterra C18 analytical column (2.1×50 mm). Mobile phase was consists of a mixture of 10 mM ammonium acetate and acetonitrile running in a 1.5 minutes linear gradient. Aliquots of the matrix were spiked with known concentrations of the compound of interest and an internal standard. Study samples were spiked with the internal standard alone. The calibration curve generally contains final concentrations in the control matrix of 1 to 5000 ng/mL. The calibration curve was analyzed and the instrument response (area counts for compound of interest/Area Counts for internal Standard) are used to generate a calibration curve. The instrument response for study samples were compared to the calibration curve and the concentration back-calculated from the curve.
In order to determine compound concentration in the brain, the brain sample was thawed to RT, and a 0.5 weight equivalent of water was added to the sample. The sample was then completely homogenized. Two to four volumes of acetonitrile were added to the brain homogenate, the homogenate mixed and the sample centrifuged to remove protein. Similar to the method used to obtain blood concentrations, an aliquot of the sample homogenate supernatant was injected onto an LC/MS/MS running a gradient suitable for detecting the compound of interest. The instrument response was compared to the instrument response from calibration samples of brain homogenate spiked with known concentrations of compound in order to determine the brain concentration.

PI3Kα = PI3Kα (Homo sapiens, UniProt P42336); test: PI3K Inhibition Assay (33P-ATP, PI(4,5)P2 substrate), PI3Kα isoform; type: biochemical; conditions: 2 nM final enzyme, 3 μM ATP, 30 μM PI(4,5)P2; competitive tight binding Ki fit
Sequence of PI3Kα (P42336 whole entry, species assumed, canonical isoform): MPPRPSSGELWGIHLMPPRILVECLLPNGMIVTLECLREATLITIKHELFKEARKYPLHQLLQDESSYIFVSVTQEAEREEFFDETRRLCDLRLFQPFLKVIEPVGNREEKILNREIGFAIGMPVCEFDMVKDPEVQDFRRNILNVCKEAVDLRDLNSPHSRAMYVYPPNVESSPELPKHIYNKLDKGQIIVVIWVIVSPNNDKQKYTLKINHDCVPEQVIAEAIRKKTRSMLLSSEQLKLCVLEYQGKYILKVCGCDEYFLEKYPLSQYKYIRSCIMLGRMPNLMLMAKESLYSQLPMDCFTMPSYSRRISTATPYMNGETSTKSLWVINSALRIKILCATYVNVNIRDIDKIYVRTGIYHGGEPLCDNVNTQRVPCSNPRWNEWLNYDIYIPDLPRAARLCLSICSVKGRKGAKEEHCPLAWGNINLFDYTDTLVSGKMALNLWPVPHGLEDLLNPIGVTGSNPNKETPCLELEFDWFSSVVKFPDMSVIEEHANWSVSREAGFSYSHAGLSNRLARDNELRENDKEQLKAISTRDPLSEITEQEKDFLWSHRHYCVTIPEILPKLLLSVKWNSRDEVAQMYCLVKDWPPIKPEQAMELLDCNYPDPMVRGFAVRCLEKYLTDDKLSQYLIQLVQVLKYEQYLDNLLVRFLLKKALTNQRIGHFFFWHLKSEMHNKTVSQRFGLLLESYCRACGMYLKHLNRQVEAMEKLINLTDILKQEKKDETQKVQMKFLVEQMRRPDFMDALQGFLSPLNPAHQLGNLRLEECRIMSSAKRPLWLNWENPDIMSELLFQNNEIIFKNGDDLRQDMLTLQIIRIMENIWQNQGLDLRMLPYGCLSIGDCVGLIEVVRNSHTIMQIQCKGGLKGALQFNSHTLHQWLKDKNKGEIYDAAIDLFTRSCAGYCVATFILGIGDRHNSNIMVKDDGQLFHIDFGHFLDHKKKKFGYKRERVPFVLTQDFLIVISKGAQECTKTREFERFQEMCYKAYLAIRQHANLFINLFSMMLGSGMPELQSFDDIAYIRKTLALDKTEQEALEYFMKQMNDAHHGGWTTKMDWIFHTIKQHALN
Sequence of PI3Kα (P27986 whole entry partner, species assumed, canonical isoform): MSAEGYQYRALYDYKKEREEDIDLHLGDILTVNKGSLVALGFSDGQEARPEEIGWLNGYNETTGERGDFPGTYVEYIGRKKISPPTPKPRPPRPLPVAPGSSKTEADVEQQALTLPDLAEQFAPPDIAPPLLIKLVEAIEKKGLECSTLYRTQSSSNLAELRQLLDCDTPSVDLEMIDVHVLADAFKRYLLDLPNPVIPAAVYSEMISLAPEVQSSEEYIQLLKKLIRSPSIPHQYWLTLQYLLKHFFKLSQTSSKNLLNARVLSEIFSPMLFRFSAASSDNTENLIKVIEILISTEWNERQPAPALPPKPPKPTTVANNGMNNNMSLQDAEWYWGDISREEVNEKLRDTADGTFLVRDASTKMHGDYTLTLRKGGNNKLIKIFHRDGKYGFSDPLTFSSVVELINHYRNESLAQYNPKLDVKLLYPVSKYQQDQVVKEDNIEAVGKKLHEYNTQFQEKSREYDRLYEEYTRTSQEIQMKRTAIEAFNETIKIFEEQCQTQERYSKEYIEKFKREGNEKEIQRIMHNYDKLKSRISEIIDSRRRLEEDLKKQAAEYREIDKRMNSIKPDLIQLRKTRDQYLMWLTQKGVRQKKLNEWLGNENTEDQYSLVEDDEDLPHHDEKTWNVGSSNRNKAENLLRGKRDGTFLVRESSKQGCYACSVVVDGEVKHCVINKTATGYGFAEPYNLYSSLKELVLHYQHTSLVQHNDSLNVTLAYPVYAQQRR
Description: as §1, §2, §3

[2] = test system: experimental autoimmune encephalomyelitis (EAE); test: Experimental autoimmune encephalomyelitis (EAE) mouse model of multiple sclerosis; type: in vivo; conditions: prophylactic administration, contrasted with animals administered vehicle alone
Source text: See, for example, Keszthelyi et al., Neurology, 1996, 47:1053-1059.

[3] = based on a density of rat plasma of 1.0 g/mL, read-out: Plasma Conc.
[4] = rat, brain, average of two or three animals, read-out: Brain Conc.

Sequence of PI3Kγ (P48736 whole entry, species assumed, canonical isoform): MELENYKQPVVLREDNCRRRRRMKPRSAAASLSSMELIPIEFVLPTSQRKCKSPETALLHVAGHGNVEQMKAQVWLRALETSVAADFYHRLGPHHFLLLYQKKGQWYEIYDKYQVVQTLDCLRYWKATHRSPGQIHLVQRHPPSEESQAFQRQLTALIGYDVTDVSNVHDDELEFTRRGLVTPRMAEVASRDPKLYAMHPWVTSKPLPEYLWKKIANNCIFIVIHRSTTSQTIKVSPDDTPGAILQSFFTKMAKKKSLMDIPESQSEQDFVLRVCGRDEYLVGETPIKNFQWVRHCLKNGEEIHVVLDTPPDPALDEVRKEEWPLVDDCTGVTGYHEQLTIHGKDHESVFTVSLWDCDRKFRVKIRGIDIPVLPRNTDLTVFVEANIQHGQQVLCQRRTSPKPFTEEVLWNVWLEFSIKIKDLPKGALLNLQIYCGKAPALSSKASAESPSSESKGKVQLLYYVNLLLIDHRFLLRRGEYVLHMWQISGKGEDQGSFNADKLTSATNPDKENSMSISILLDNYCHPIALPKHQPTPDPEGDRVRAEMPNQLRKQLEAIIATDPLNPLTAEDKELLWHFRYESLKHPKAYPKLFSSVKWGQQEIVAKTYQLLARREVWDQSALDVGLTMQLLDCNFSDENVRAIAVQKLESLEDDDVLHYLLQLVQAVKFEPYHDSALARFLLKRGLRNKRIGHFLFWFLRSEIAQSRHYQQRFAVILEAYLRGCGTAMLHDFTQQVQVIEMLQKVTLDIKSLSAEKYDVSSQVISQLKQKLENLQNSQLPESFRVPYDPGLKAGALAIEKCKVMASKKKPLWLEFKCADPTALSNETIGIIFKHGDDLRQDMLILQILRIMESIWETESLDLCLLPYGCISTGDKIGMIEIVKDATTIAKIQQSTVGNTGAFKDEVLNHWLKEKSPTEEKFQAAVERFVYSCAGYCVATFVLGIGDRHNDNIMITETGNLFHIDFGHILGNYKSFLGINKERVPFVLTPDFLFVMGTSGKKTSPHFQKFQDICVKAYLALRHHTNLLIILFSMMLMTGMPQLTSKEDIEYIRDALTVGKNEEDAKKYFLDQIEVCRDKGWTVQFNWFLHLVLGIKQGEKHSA

Compound | Ki (PI3Kγ) [nM] | concentration at 2 h [1, 3] [ng/mL] | concentration at 2 h [1, 4] [ng/g] | Kp at 2 h ([1]; rat) | Ki (PI3Kα) [nM] | Effect on disease in EAE [2]
CCOCCCNC(=O)Nc1nc2ccc(-c3cncc(C(F)(F)F)c3)nc2s1 [Compound 11] | ≤ 10 | 210 | 55 | 0.3 | 100 to 4000 | –
CCCOCCCNC(=O)Nc1nc2ccc(-c3cncc(C(F)(F)F)c3)nc2s1 [Compound 2] | 10 to 100 | – | – | – | 100 to 4000 | –
CCNC(=O)Nc1nc2ccc(-c3cncc(C(F)(F)F)c3)nc2s1 [Compound 13] | ≤ 10 | – | – | – | 10 to 100 | –
CCCOCCNC(=O)Nc1nc2ccc(-c3cncc(C(F)(F)F)c3)nc2s1 [Compound 1, 1-(5-(5-(trifluoromethyl)pyridin-3-yl)thiazolo[5,4-b]pyridin-2-yl)-3-(2-propoxyethyl)urea] | 10 to 100 | 197 | 157 | 0.8 | 100 to 4000 | –
CC(C)OCCCNC(=O)Nc1nc2ccc(-c3cncc(C(F)(F)F)c3)cc2s1 [Compound 3, 1-(6-(5-(trifluoromethyl)pyridin-3-yl)benzo[d]thiazol-2-yl)-3-(3-isopropoxypropyl)urea] | 10 to 100 | – | – | – | 100 to 4000 | –
COCCCNC(=O)Nc1nc2ccc(-c3cncc(C(F)(F)F)c3)nc2s1 [Compound 10] | ≤ 10 | 985 | 662 | 0.7 | 10 to 100 | disease suppression
